The conditions of series [1]: 23° C., pH=4.4; cited from earlier work.
Series [2] is described as follows: Saturated solution of the maleate salt (Funke et al., literature). The settings on record: water, thermodynamic from solid; translated from saturated solution of the maleate at 23° C., pH=4.4; read-out: free base solubility. The format is physicochemical.
Series [3] in a line: Hygroscopic nature by dynamic vapor sorption. The series is classed as physicochemical. The conditions noted are these: relative humidities greater than about 20%. The source says: The hygroscopic nature of the succinate salt hemihydrate was investigated by dynamic vapor sorption.

Counter-ions that a name gives are not always drawn.

Usually solubility stands for the dissolved amount per volume that the medium holds. Regarding `CN1C[C@@H]2c3ccccc3Oc3ccc(Cl)cc3[C@H]2C1` (relative stereo) [maleate salt of Asenapine, trans-5-chloro-2-methyl-2,3,3a,12b-tetrahydro-1H-dibenz[2,3:6,7]oxepino[4,5-c]pyrrole], the “concentration of saturated solution” value in series [1] was 5800 µg/mL. The solubility in series [2] was about 4100 µg/mL. Regarding “Asenapine succinate form I [succinate salt hemihydrate]”, the “water content by dynamic vapor sorption” value in series [3] lay in the range of 2 to 2.5%.

These data come from patent US20140163083A1, “NOVEL CRYSTALLINE SALTS OF ASENAPINE” (SANDOZ AG, priority 2011, published 2014).
